Numbers after ± are expanded uncertainties.
Assays:
[1] = molar heat capacity at constant pressure; details: 101.33 kPa, Vacuum adiabatic calorimetry
[2] = Molar enthalpy of transition or fusion; details: Adiabatic calorimetry

CCCCn1cc[n+](C)c1.O=S(=O)([O-])C(F)(F)F [1-butyl-3-methylimidazolium trifluoromethanesulfonate]
[1]
Details | molar heat capacity at constant pressure [J/K/mol]
5 K, Crystal 2 | 1.486 ± 0.031
10 K, Crystal 2 | 10.2 ± 0.1
15 K, Crystal 2 | 23.78 ± 0.18
20 K, Crystal 2 | 38.56 ± 0.23
25 K, Crystal 2 | 52.98 ± 0.25
30 K, Crystal 2 | 66.38 ± 0.18
35 K, Crystal 2 | 78.37 ± 0.2
40 K, Crystal 2 | 88.95 ± 0.22
45 K, Crystal 2 | 98.67 ± 0.24
50 K, Crystal 2 | 107.5 ± 0.3
55 K, Crystal 2 | 115.5 ± 0.3
60 K, Crystal 2 | 123 ± 0.3
65 K, Crystal 2 | 130 ± 0.3
70 K, Crystal 2 | 136.6 ± 0.3
80 K, Crystal 2 | 148.9 ± 0.3
90 K, Crystal 2 | 160 ± 0.4
100 K, Crystal 2 | 170.5 ± 0.4
110 K, Crystal 2 | 180.5 ± 0.4
120 K, Crystal 1 | 192.4 ± 0.4
120 K, Crystal 2 | 192.4 ± 0.4
130 K, Crystal 1 | 198.6 ± 0.4
140 K, Crystal 1 | 206.9 ± 0.4
150 K, Crystal 1 | 216.1 ± 0.4
160 K, Crystal 1 | 225.6 ± 0.4
170 K, Crystal 1 | 235.5 ± 0.4
180 K, Crystal 1 | 245.9 ± 0.4
190 K, Crystal 1 | 256.7 ± 0.5
200 K, Crystal 1 | 267.8 ± 0.5
210 K, Crystal 1 | 279.3 ± 0.5
220 K, Crystal 1 | 290.9 ± 0.5
230 K, Crystal 1 | 302.8 ± 0.5
240 K, Crystal 1 | 314.9 ± 0.5
250 K, Crystal 1 | 327.1 ± 0.5
260 K, Crystal 1 | 339.4 ± 0.5
270 K, Crystal 1 | 351.9 ± 0.6
280 K, Crystal 1 | 364.5 ± 0.6
290 K, Crystal 1 | 377.3 ± 0.6
290.98 K, Crystal 1 | 378.5 ± 0.6
290.98 K, Liquid | 423.9 ± 0.6
298.15 K, Liquid | 427.7 ± 0.6
300 K, Liquid | 428.6 ± 0.6
310 K, Liquid | 433.9 ± 0.6
320 K, Liquid | 439.2 ± 0.6
330 K, Liquid | 444.6 ± 0.6
340 K, Liquid | 450 ± 0.7
350 K, Liquid | 455.4 ± 0.7
360 K, Liquid | 460.9 ± 0.7
370 K, Liquid | 466.4 ± 0.7

[2]
Details | Molar enthalpy of transition or fusion [kcal/mol]
Crystal 1 | 4.644 ± 0.00956
Crystal 2 | 0.00311 ± 0.000239

Source: the NIST ThermoML archive (doi:10.1016/j.tca.2010.08.002)
